What was measured:
tankyrase 1/2 = experiment: Cellular inhibition of Tankyrase: increase of Axin2 level in DLD1 cells (Luminex); format: cell-based; conditions: 24 hours, read-out: EC50 tankyrase 1/2 (cell assay)
In short: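 DLD1 colon carcinoma cells treated 24 h with seven-step serial dilutions in triplicate (0.3% DMSO final). Axin2 in cleared lysates captured on anti-Axin2 beads, detected with polyclonal anti-Axin2 plus PE secondary, and quantified by Luminex. EC50 from data normalized to solvent control; IWR-2 (3E-06 M) marks maximal Axin2 increase.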

His-tagged Parp-1 = target: T1, His-tagged Parp-1 (Homo sapiens, UniProt P09874); experiment: PARP-1 autoparsylation assay (HTRF); format: biochemical; conditions: PARP-1 autoparsylation HTRF assay
T1 construct: purchased Enzo Life Sciences GmbH
Excerpt: Description of the PARP1 Assay
Biochemical Activity Testing of PARP-1: Autoparsylation Assay
The autoparsylation assay is run in two steps: the enzymatic reaction in which
His-tagged Parp-1 transfers biotinylated ADP-ribose/ADP-ribose to itself from biotinylated NAD/NAD as co-substrate and the detection reaction where a time resolved FRET between cryptate labelled anti-His antibody bound to the His tag of the enzyme and Xlent® labelled-streptavidin bound the biotin-parsylation residue is analysed. The autoparsylation activity is detectable directly via the increase in HTRF signal.
The autoparsylation assay is performed as 384-well HTRF® (Cisbio, Codolet, France) assay format in Greiner low volume nb 384-well microtiter plates. 35 nM His-tagged Parp-1 (human, recombinant, Enzo Life Sciences GmbH, Lörrach, Germany) and a mixture of 125 nM bio-NAD (Biolog, Life science Inst., Bremen, Germany) and 800 nM NAD as co-substrate are incubated in a total volume of 6 μl (100 mM Tris/HCl, 4 mM Mg-chloride, 0.01% IGEPAL® CA630, 1 mM DTT, 0.5% DMSO, pH 8, 13 ng/μl activated DNA (BPS Bioscience, San Diego, US)) in the absence or presence of the test compound (10 dilution concentrations) for 150 min at 23° C. The reaction is stopped by the addition of 4 μl of the Stop/detection solution (70 nM SA-Xlent® (Cisbio, Codolet, France), 2.5 nM Anti-His-K® (Eu-labelled anti-His, Cisbio, Codolet, France) in 50 mM HEPES, 400 mM KF, 0.1% BSA, 20 mM EDTA, pH 7.0). After 1 h incubation at room temperature the HTRF is measured with an Envision multimode reader (Perkin Elmer LAS Germany GmbH) at excitation wavelength 340 nm (laser mode) and emission wavelengths 615 nm and 665 nm. The ratio of the emission signals is determined. The full value used is the inhibitor-free reaction. The pharmacological zero value used is Olaparib (LClabs, Woburn, US) in a final concentration of 1 μM. The inhibitory values (IC50) are determined using either the program Symyx Assay Explorer® or Condosseo® from GeneData.

[1] = target: T2, GST-tagged Tnks-2 (873-1166 aa) (Homo sapiens, UniProt Q9H2K2); experiment: TNKS2 activity ELISA (autoparsylation assay); format: biochemical
T2 construct: GST-tagged Tnks-2 (873-1166 aa, prepared in-house); made in house
Method: Description of the TNKS1 and TNKS2 ELISA Assay
Biochemical Activity Testing of TNKS 1 and 2: Activity ELISA (Autoparsylation Assay)
For analysis of autoparsylation activity of TNKS 1 and 2 an activity ELISA is performed: In the first step GST tagged TNKS is captured on a Glutathione coated plate. Then the activity assay with biotinylated NAD is performed in the absence/presence of the compounds. During the enzymatic reaction GST tagged TNKS transfers biotinylated ADP-ribose to itself from biotinylated NAD as co-substrate. For the detection streptavidin-HRP conjugate is added that binds to the biotinylated TNKS and is thereby captured to the plates. The amount of biotinylated resp. autoparsylated TNKS is detected with a luminescence substrate for HRP. The level of the luminescence signal correlates directly with the amount of autoparsylated TNKS and therefore with activity of TNKS.
The activity ELISA is performed in 384 well Glutathione coated microtiter plates (Express capture Glutathione coated plate, Biocat, Heidelberg, Germany). The plates are pre-equilibrated with PBS. Then the plates are incubated with 50 μl 20 ng/well GST-tagged Tnks-1 (1023-1327 aa, prepared in-house), respectively GST-tagged Tnks-2 (873-1166 aa, prepared in-house) in assay buffer (50 mM HEPES, 4 mM Mg-chloride, 0.05% Pluronic F-68, 2 mM DTT, pH 7.7) overnight at 4° C. The plates are washed 3 times with PBS-Tween-20. The wells are blocked by incubation at room temperature for 20 minutes with 50 μl blocking buffer (PBS, 0.05% Tween-20, 0.5% BSA). Afterwards the plates are washed 3 times with PBS-Tween-20. The enzymatic reaction is performed in 50 μl reaction solution (50 mM HEPES, 4 mM Mg-chloride, 0.05% Pluronic F-68, 1.4 mM DTT, 0.5% DMSO, pH 7.7) with 10 μM bio-NAD (Biolog, Life science Inst., Bremen, Germany) as co-substrate in the absence or presence of the test compound (10 dilution concentrations) for 1 hour at 30° C. The reaction is stopped by 3 times washing with PBS-Tween-20. For the detection 50 μl of 20 ng/μl Streptavidin, HRP conjugate (MoBiTec, Göttingen, Germany) in PBS/0.05% Tween-20/0.01% BSA are added and the plates are incubated for 30 minutes at room temperature. After three times washing with PBS-Tween-20 50 μl of SuperSignal ELISA Femto Maximum sensitivity substrate solution (ThermoFisherScientific (Pierce), Bonn, Germany) are added. Following a 1 minute incubation at room temperature luminescence signals are measured with an Envision multimode reader (Perkin Elmer LAS Germany GmbH) at 700 nm. The full value used is the inhibitor-free reaction. The pharmacological zero value used is XAV-939 (Tocris) in a final concentration of 5 μM. The inhibitory values (1050) are determined using either the program Symyx Assay Explorer® or Condosseo® from GeneData.

T1 sequence (P09874 whole entry): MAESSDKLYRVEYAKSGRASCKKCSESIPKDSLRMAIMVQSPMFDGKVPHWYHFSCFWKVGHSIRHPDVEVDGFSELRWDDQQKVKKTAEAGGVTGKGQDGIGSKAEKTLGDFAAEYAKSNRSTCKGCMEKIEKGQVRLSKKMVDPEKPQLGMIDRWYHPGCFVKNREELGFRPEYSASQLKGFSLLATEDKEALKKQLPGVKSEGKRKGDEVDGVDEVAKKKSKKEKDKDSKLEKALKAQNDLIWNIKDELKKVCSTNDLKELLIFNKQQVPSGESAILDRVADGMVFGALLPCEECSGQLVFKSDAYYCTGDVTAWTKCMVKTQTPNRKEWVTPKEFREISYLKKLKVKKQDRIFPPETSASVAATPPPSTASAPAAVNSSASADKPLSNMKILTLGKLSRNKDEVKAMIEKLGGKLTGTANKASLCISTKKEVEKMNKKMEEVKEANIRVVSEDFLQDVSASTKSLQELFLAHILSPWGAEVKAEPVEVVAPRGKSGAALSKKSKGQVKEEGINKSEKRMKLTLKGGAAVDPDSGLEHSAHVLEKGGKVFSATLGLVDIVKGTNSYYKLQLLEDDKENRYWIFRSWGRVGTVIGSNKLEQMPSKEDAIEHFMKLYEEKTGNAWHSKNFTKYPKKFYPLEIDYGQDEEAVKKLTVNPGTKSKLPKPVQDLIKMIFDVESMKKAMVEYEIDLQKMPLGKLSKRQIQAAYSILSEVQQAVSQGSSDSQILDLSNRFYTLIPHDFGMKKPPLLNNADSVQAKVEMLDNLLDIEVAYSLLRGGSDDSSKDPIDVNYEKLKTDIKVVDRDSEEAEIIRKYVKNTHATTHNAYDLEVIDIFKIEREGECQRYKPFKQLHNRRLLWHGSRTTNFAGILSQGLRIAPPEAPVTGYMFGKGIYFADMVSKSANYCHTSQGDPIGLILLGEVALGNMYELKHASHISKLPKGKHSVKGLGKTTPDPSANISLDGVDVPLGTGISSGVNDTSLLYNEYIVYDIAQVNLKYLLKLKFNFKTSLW
T2 sequence (Q9H2K2 873-1166): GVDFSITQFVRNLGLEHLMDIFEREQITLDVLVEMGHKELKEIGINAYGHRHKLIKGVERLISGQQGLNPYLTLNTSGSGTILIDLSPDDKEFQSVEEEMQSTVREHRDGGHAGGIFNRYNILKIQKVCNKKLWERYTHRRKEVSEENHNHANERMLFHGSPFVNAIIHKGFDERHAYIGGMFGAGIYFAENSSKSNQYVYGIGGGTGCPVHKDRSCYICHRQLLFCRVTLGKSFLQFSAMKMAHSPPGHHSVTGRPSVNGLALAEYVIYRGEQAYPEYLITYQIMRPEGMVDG

Row | Compound | EC50 (tankyrase 1/2) [µM] | IC50 (His-tagged Parp-1) [µM] | IC50 [1] [µM]
1 | CC(C)(C)c1ccc(-c2cn3cccc3c(=O)[nH]2)cc1 [Compound A11, 3-(4-tert-butyl-phenyl)-2H-pyrrolo[1,2-a]pyrazin-1-one] | < 0.3 | 3 to 50 | < 0.3
2 | Cc1ccc(-c2cn3cccc3c(=O)[nH]2)cc1 [Compound A12, 3-p-tolyl-2H-pyrrolo[1,2-a]pyrazin-1-one] | 0.3 to 3 | 0.3 to 3 | < 0.3
3 | Cn1cc(-c2ccc(-c3cn4cccc4c(=O)[nH]3)cc2)cn1 [Compound A25, 3-[4-(1-methyl-1H-pyrazol-4-yl)-phenyl]-2H-pyrrolo[1,2-a]pyrazin-1-one] | < 0.3 | 3 to 50 | < 0.3
4 | CC(C)(O)c1ccc(-c2cn3cccc3c(=O)[nH]2)cc1 [Compound A29, 3-[4-(1-hydroxy-1-methyl-ethyl)-phenyl]-2H-pyrrolo[1,2-a]pyrazin-1-one] | < 0.3 | 0.3 to 3 | < 0.3
5 | CC(C)(C)c1ccc(-c2cn3cc(F)cc3c(=O)[nH]2)cc1 [Compound A35, 3-(4-tert-butyl-phenyl)-7-fluoro-2H-pyrrolo[1,2-a]pyrazin-1-one] | < 0.3 | 3 to 50 | < 0.3
6 | Cc1cc2c(=O)[nH]c(-c3ccc(C(C)(C)O)cc3)cn2n1 [Compound A46, 6-[4-(1-hydroxy-1-methyl-ethyl)phenyl]-2-methyl-5H-pyrazolo[1,5-a]pyrazin-4-one] | 0.3 to 3 | 0.3 to 3 | < 0.3
7 | Cc1cc2c(=O)[nH]c(-c3ccc(C(C)(C)O)cc3)cn2c1 [Compound A56, 3-[4-(1-hydroxy-1-methyl-ethyl)-phenyl]-7-methyl-2H-pyrrolo[1,2-a]pyrazin-1-one] | < 0.3 | 0.3 to 3 | < 0.3
8 | CC(C)(O)c1ccc(-c2cn3cc(F)cc3c(=O)[nH]2)cc1 [Compound A59, 7-fluoro-3-[4-(1-hydroxy-1-methyl-ethyl)-phenyl]-2H-pyrrolo[1,2-a]pyrazin-1-one] | < 0.3 | 0.3 to 3 | < 0.3
9 | CC(C)(O)c1ccc(-c2cn3cc(Cl)cc3c(=O)[nH]2)cc1 [Compound A60, 7-chloro-3-[4-(1-hydroxy-1-methyl-ethyl)-phenyl]-2H-pyrrolo[1,2-a]pyrazin-1-one] | < 0.3 | 0.3 to 3 | < 0.3
10 | CCC(O)(CC)c1ccc(-c2cn3cc(F)cc3c(=O)[nH]2)cc1 [Compound A61, 3-[4-(1-ethyl-1-hydroxy-propyl)-phenyl]-7-fluoro-2H-pyrrolo[1,2-a]pyrazin-1-one] | < 0.3 | 0.3 to 3 | < 0.3
11 | CC(C)(F)c1ccc(-c2cn3cc(F)cc3c(=O)[nH]2)cc1 [Compound A63, 7-fluoro-3-[4-(1-fluoro-1-methyl-ethyl)-phenyl]-2H-pyrrolo[1,2-a]pyrazin-1-one] | < 0.3 | 0.3 to 3 | < 0.3
12 | CC(C)(OCCO)c1ccc(-c2cn3cc(F)cc3c(=O)[nH]2)cc1 [Compound A70, 7-fluoro-3-{4-[1-(2-hydroxy-ethoxy)-1-methyl-ethyl]-phenyl}-2H-pyrrolo[1,2-a]pyrazin-1-one] | < 0.3 | 0.3 to 3 | < 0.3
13 | COCCOC(C)(C)c1ccc(-c2cn3cc(F)cc3c(=O)[nH]2)cc1 [Compound A71, 7-fluoro-3-{4-[1-(2-methoxy-ethoxy)-1-methyl-ethyl]-phenyl}-2H-pyrrolo[1,2-a]pyrazin-1-one] | 0.3 to 3 | 3 to 50 | < 0.3
14 | CC(C)(N)c1ccc(-c2cn3cc(F)cc3c(=O)[nH]2)cc1 [Compound A72, 3-[4-(1-amino-1-methyl-ethyl)-phenyl]-7-fluoro-2H-pyrrolo[1,2-a]pyrazin-1-one] | 3 to 50 | < 0.3 | < 0.3
15 | CC1(c2ccc(-c3cn4cc(F)cc4c(=O)[nH]3)cc2)CCCO1 (stereo not drawn) [Compound A73, 7-fluoro-3-[4-(2-methyl-tetrahydro-furan-2-yl)-phenyl]-2H-pyrrolo[1,2-a]pyrazin-1-one] | < 0.3 | 0.3 to 3 | < 0.3
16 | O=c1[nH]c(-c2ccc(C3CCNCC3)cc2)cn2cccc12 [Compound A75, 3-(4-piperidin-4-yl-phenyl)-2H-pyrrolo[1,2-a]pyrazin-1-one] | 0.3 to 3 | 3 to 50 | < 0.3
17 | O=c1[nH]c(-c2ccc(C3CCNC3)cc2)cn2cccc12 (stereo not drawn) [Compound A76, 3-(4-Pyrrolidin-3-yl-phenyl)-2H-pyrrolo[1,2-a]pyrazin-1-one] | 0.3 to 3 | 0.3 to 3 | < 0.3
18 | CN1CCC(c2ccc(-c3cn4cccc4c(=O)[nH]3)cc2)CC1 [Compound A79, 3-[4-(1-methyl-piperidin-4-yl)-phenyl]-2H-pyrrolo[1,2-a]pyrazin-1-one] | 3 to 50 | 3 to 50 | < 0.3
19 | CN1CCC(c2ccc(-c3cn4cccc4c(=O)[nH]3)cc2)C1 (stereo not drawn) [Compound A80, 3-[4-(1-methyl-pyrrolidin-3-yl)-phenyl]-2H-pyrrolo[1,2-a]pyrazin-1-one] | 3 to 50 | 3 to 50 | < 0.3
20 | O=c1[nH]c(-c2ccc(C3(O)CCC3)cc2)cn2cccc12 [Compound A111] | < 0.3 | 0.3 to 3 | < 0.3
